US20250296922A1, “POLYSUBSTITUTED PYRROLIDINE DERIVATIVE, PREPARATION METHOD THEREFOR AND USE THEREOF” (SHANGHAI WENNAI THERAPEUTICS CO LTD, priority 2023, published 2025)
Read-outs that look alike come from different tables or passages of the source.

Experiments:
Nav1.8 sodium channel = Nav1.8 sodium channel (Homo sapiens (Human), UniProt Q9Y5Y9); test: NaV1.8 blocking activity, manual patch clamp; format: cell-based; settings: CHO cell line stably expressing Nav1.8
Experimental: The NaV1.8 blocking activity was determined by using a manual patch clamp technique to detect the effect of the subject on the channel currents of stably overexpressed Nav1.8.
CHO cell line stably expressing the Nav1.8 sodium channel was used for the experiments, gene information: sodium channel, voltage-gated, type 8, alpha (SCN10A), cDNA strictly similar to GenBank accession number: NM 006514.
Cells were cultured in HAM'S/F-12 medium containing 10% foetal bovine serum and 10 μg/mL Blasticidin, 200 μg/mL Hygromycin B, and 100 μg/mL Zeocin at 37° C., 5% CO2. For expansion or maintenance cultures, cells were treated with 0.25%-Trypsin-EDTA, washed and centrifuged, and then inoculated in 6-cm cell culture dishes with 2.5×10^5lls per cell culture dish (final volume: 5 mL).
Prior to the patch clamp detection, cells were separated with 0.25%-Trypsin-EDTA and 6.5×10^3 cells were spread onto coverslips and incubated (final volume: 500 μL) in 24-well plates for 18 hours, then the test was performed.
50 mM CsCl, 10 mM NaCl, 10 mM HEPES, 60 mM CsF, 20 mM EGTA, and pH was adjusted to 7.2 with CsOH. • Instrument information is provided in Table 2 below:
Prior to Nav1.8 channel current testing, a blank control solution (DMSO) was diluted into 10 ml of extracellular fluid as the working solution. Positive controls and subjects were first diluted with different doses of DMSO depending on the final concentration before being diluted as working solution using extracellular fluid. 100 nM TTX was added to each working solution to block the TTX-S current. The working solution was sonicated for 20 min before performing the patch clamp test detection.
Patch clamp manipulation: firstly, the capillary glass tube was drawn into a recording electrode using a microelectrode puller, then the electrode filled with intracellular fluid was loaded into the microelectrode holder, and the microelectrode manipulator was manoeuvred under an inverted microscope to immerse the electrode into the extracellular fluid and record the electrode resistance (Rpip). The electrode was then slowly contacted to the cell surface and negative pressure suction was given to form a GQ2 seal. At this time, fast capacitance compensation was performed and negative pressure was continually applied to suction through the cell membrane to form a whole-cell recording pattern. Finally, slow capacitance compensation was performed and experimental parameters such as series resistance (Rs) were recorded. No leakage compensation was given.
Drug administration was initiated when the Nav1.8 current was stabilized for whole-cell recordings, and the next concentration was detected after each drug concentration had acted for approximately 5 min (or until the current was stable). Cell-lined coverslips were placed in the recording bath under an inverted microscope, and the blank control external solution as well as the working solution of the compound to be tested flowed sequentially from low to high concentrations through the recording bath by using gravitational perfusion and thus acted on the cells, and a peristaltic pump was used to exchange fluids during the recording. The current detected by each cell in the compound-free external fluid served as its own control. Each concentration was repeated independently 2-3 times. All electrophysiological experiments were performed at room temperature.
The voltage stimulation scheme for whole-cell patch-clamp recording of Nav1.8 currents was as follows: when a whole-cell seal was formed, the voltage was clamped at −120 mV. The resting state recording of sodium currents was performed by maintaining the voltage for 5s and then depolarizing it to 0 mV, and then administering a depolarizing pulse (TP1) to 0 m V for 50 ms for detecting the resting state sodium currents. For half-inactivated state recording, the voltage was first stepped at different voltages and maintained for 5s and then a depolarizing pulse was given to 0 mV to detect the Vhalf. […]

CYP1A2 = CYP1A2 (Homo sapiens (Human), UniProt P05177); test: Human liver microsomal CYP inhibition test, CYP1A2; format: in vitro ADME
CYP1A2, sequence (P05177 whole entry): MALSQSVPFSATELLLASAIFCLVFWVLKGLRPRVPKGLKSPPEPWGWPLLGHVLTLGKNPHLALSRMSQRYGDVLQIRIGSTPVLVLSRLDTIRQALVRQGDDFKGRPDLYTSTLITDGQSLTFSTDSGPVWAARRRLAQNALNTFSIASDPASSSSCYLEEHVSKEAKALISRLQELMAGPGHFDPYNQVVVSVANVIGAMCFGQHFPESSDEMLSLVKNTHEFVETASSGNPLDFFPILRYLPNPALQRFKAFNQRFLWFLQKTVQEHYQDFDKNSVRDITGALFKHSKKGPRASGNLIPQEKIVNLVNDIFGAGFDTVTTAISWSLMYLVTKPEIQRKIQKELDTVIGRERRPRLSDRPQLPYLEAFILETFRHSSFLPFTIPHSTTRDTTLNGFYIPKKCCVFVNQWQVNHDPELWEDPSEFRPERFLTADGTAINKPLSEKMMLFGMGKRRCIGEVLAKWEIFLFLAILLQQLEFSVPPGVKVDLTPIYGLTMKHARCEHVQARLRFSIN
Experimental: 3.1 Buffer solutions: (1) potassium phosphate 100 mM; (2) magnesium chloride, 33 mM;
3.2.3 Reservoir for compounds to be tested: Dissolving the compounds to be tested in DMSO to form a 10 mM DMSO solution.
3.4.1 Preparation of human liver microsomal working solution (1.27×) (final concentration: 0.2 mg/mL)
3.5.3 Adding 20 μL of substrate solution to the appropriate wells and 20 μL of potassium phosphate buffer to the blank wells;
3.5.4 Adding 2 μL of different concentrations of target compounds (final concentrations from 0.05 μM to 50 μM, 7 concentrations in total) or standard inhibitors to each well, with 2 μL of methanol solution in the non-inhibitor and blank wells;
3.5.5 Adding 1.012 mL of liver microsomes to 78.988 mL of potassium phosphate buffer, then adding 158 μL of liver microsomes solution to all wells; preheating the well plate for 10 minutes in a 37° C. water bath;
3.5.6 Weighing 129.1 mg NADPH (purchased from SyncoZymes Co. Ltd.) and adding to 15.0 mL of 33 Mm MgCl2 solution to give a 10 mM concentration, adding 20 μL to each well;
3.5.7 Mixing and incubating the well plate in a 37° C. water bath for 10 minutes, then adding 400 μL of cold termination solution at the appropriate time point;
3.5.8 Centrifuging the sample at 4000 rpm for 20 minutes to precipitate the protein. Transferring 200 μL of supernatant to 100 μL of HPLC water and shaking for 10 minutes. The samples were analyzed by LC/MS/MS;
Percentage inhibition was plotted for blank control and different concentrations of target compounds by using XL fitting or SigmaPlot and the data were analyzed by non-linear regression. IC50 values were determined by using either 3-parameter or 4-parameter logistic equations.

[1] = human liver microsomes 0.2 mg/mL, substrate Phenacetin, read-out: IC50 (μM) CYP1A2

Nav1.8 sodium channel, sequence (Q9Y5Y9 whole entry): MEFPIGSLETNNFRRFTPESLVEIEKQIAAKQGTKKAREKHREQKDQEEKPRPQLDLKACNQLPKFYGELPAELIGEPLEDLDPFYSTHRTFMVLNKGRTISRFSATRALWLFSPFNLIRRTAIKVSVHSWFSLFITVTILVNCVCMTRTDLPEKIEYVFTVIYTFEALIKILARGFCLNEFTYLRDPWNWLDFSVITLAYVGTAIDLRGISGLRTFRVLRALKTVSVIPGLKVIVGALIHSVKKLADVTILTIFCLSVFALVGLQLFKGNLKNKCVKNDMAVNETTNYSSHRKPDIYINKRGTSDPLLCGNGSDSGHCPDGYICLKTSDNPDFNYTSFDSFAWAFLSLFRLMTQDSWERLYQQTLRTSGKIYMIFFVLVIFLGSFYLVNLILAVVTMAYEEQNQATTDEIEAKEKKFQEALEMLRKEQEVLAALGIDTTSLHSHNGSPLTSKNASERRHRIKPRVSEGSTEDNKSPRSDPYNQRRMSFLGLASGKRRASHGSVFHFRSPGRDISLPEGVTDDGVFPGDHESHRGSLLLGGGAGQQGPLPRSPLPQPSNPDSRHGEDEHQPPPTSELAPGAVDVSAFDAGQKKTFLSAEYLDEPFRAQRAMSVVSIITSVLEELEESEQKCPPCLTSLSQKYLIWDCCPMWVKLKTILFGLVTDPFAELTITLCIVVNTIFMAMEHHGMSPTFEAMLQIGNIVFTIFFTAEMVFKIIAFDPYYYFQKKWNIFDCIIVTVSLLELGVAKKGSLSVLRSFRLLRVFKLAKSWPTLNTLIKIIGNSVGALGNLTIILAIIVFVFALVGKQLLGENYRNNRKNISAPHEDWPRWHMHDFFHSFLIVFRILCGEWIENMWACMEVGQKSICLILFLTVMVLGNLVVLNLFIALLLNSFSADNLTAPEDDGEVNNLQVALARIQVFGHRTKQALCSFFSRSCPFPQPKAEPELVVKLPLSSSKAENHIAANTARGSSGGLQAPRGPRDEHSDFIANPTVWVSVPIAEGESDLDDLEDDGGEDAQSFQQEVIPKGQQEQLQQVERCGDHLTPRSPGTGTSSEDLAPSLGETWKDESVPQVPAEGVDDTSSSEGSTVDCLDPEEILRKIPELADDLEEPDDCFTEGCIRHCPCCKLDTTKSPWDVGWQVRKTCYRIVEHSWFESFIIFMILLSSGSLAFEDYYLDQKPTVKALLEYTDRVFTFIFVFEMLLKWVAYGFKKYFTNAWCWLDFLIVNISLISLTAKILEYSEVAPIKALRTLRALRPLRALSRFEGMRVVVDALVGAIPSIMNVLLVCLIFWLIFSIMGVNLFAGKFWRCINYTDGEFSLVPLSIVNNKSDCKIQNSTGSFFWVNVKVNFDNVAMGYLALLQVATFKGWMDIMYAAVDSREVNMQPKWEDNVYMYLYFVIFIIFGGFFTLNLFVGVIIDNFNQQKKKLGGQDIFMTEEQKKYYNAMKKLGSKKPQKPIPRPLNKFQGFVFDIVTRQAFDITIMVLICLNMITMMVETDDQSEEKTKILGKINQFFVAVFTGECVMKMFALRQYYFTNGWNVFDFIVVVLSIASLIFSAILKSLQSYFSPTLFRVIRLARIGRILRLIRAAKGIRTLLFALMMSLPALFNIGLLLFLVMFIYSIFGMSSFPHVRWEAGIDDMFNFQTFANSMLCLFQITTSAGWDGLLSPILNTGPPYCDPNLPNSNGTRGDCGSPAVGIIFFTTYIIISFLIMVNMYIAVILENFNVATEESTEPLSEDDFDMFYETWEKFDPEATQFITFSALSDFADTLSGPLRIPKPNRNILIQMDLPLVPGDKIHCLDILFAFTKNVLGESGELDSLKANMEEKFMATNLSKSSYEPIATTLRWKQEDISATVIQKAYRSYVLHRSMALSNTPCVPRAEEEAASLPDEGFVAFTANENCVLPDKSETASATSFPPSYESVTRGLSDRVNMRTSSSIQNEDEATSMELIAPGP

Compound	Blocking rate (%) @3 nM (Nav1.8 sodium channel)	Blocking rate(%) @10 nM (Nav1.8 sodium channel)	IC50 (Nav1.8 sodium channel)	IC50 (CYP1A2; microsomes)	IC50 (CYP1A2; [1])
4-((2R,3S,4S,5R)-3-(3,4-difluoro-2-(methoxy-d3)phenyl)-4,5-dimethyl-5-(trifluoromethyl) pyrrolidine-2-carboxamido)pyridinamide [Compound 11]	90.26%	97.84%	0.00073 µM	> 50 µM	–
COc1c([C@H]2[C@H](C(=O)Nc3ccc[n+]([O-])c3)N[C@@](C)(C(F)(F)F)[C@H]2C)ccc(F)c1F [Compound 7, 3-((2R,3S,4S,5R)-3-(3,4-difluoro-2-methoxyphenyl)-4,5-dimethyl-5-(trifluoromethyl)pyrrolidine-2-carboxamido)pyridine 1-oxide]	67.34%	91.89%	–	–	> 50 µM
COc1c([C@H]2[C@H](C(=O)Nc3cccc(S(N)(=O)=O)c3)N[C@@](C)(C(F)(F)F)[C@H]2C)ccc(F)c1F [Compound 8, (2R,3S,4S,5R)-3-(3,4-difluoro-2-methoxyphenyl)-4,5-dimethyl-aza-(3-aminosulfonylphenyl)-5-(trifluoromethyl) pyrrolidine-2-carboxamide]	93.13%	100.00%	–	> 50 µM	–
COc1c([C@H]2[C@H](C(=O)Nc3ccnc(C(N)=O)c3)O[C@@](C)(C(F)(F)F)[C@H]2C)ccc(F)c1F [VX-548, reference compound]	–	–	–	–	> 50 µM
